Results on 14 compounds are retold here after ChEMBL document CHEMBL5096175, “An insight into the medicinal attributes of berberine derivatives: A review” (Bioorg Med Chem, 2021).

SMILES strings stand for the structures. Values after ≈ are worked out from the molar mass of the structure shown. A value given as a limit tells only on which side of the number the result lay.

The target of one experiment is Chitinase B (Serratia marcescens, UniProt P11797). The experiment in a line: Inhibition of Serratia marcescens chitinase B expressed in Escherichia coli BL21(DE3) cells using MU-(GlcNAc)2 as a substrate assessed as inhibition constant incubated for 25 mins by dixon plot analysis.
Experiment [1] has as its system Escherichia coli. The experiment in a line: Antibacterial activity against Escherichia coli assessed as inhibition of bacterial growth incubated for 24 hrs by micro broth dilution method. Type of experiment: functional. In general terms: Dilution methods test growth across graded concentrations, often in twofold steps.
Experiment [2] in a line: Antioxidant activity assessed as DPPH radical scavenging activity measured after 25 mins by UV visible spectrophotometeric analysis. Type of experiment: functional. In general terms: DPPH is a stable violet radical that fades when it is reduced.
Experiment [3] is described as follows: Antioxidant activity assessed as ABTS radical scavenging activity incubated for 10 mins by UV spectrophotometeric analysis. Type of experiment: functional.
Experiment [4] deals with HeLa. The experiment in a line: Anticancer activity against human HeLa cells assessed as cell growth inhibition incubated for 48 hrs by SRB assay. Type of experiment: functional, cell-based.
The subject of a further experiment is Ca-Ski. The experiment in a line: Anticancer activity against human Ca-Ski cells assessed as cell growth inhibition incubated for 48 hrs by SRB assay. Type of experiment: functional, cell-based. Background: The SRB assay estimates cell density from bound dye.
A further experiment deals with Clostridium perfringens. The experiment in a line: Antibacterial activity against Clostridium perfringens CICC 22949 assessed as inhibition of bacterial growth incubated for 24 hrs by broth microdilution method. Type of experiment: functional.
A further experiment concerns Pseudomonas aeruginosa. The experiment in a line: Antibacterial activity against Pseudomonas aeruginosa CICC 10419 assessed as inhibition of bacterial growth incubated for 24 hrs by broth microdilution method. Type of experiment: functional.
The subject of a further experiment is Shigella dysenteriae. The experiment in a line: Antibacterial activity against Shigella dysenteriae CICC 23829 assessed as inhibition of bacterial growth incubated for 24 hrs by broth microdilution method. Type of experiment: functional.
In another experiment the test system is Streptococcus pyogenes. The experiment in a line: Antibacterial activity against Streptococcus pyogenes CICC 10356 assessed as inhibition of bacterial growth incubated for 24 hrs by broth microdilution method. Type of experiment: functional.
The subject of a further experiment is Salmonella enteritidis. The experiment in a line: Antibacterial activity against Salmonella enteritidis CICC 24119 assessed as inhibition of bacterial growth incubated for 24 hrs by broth microdilution method. The settings on record: Salmonella enterica. Type of experiment: functional, Salmonella enterica subsp. enterica serovar Enteritidis.
In experiment [5] the test system is Staphylococcus aureus. The experiment in a line: Antibacterial activity against methicillin-resistant Staphylococcus aureus ATCC 700699 assessed as inhibition of bacterial growth incubated for 24 hrs by broth microdilution method. Type of experiment: functional.
Experiment [6] has as its system Staphylococcus aureus. The experiment in a line: Antibacterial activity against Staphylococcus aureus CICC 23656 assessed as inhibition of bacterial growth incubated for 24 hrs by broth microdilution method. Type of experiment: functional.
The subject of experiment [7] is Escherichia coli. The experiment in a line: Antibacterial activity against Escherichia coli CICC 10389 assessed as inhibition of bacterial growth incubated for 24 hrs by broth microdilution method. Type of experiment: functional.
For a further experiment, the system named is HepG2. The experiment in a line: Cytotoxicity against human HepG2 cells assessed as inhibition of cell proliferation incubated for 24 hrs by MTT assay. Type of experiment: functional, cell-based. The settings on record: HepG2, 24 h.
Experiment [8] has as its system HeLa. The experiment in a line: Cytotoxicity against human HeLa cells assessed as inhibition of cell proliferation incubated for 24 hrs by MTT assay. Type of experiment: functional, cell-based.
In another experiment the test system is PC-12. The experiment in a line: Cytotoxicity against […] cells assessed as inhibition of cell proliferation incubated for 24 hrs by MTT assay. The settings on record: Rattus norvegicus, PC-12, 24 h. Type of experiment: functional, cell-based.
Experiment [9] has as its system MCF7. The experiment in a line: Cytotoxicity against human MCF7 cells assessed as inhibition of cell proliferation incubated for 24 hrs by MTT assay. Type of experiment: functional, cell-based. The settings on record: MCF7, 24 h.
The subject of experiment [10] is A549. The experiment in a line: Cytotoxicity against human A549 cells assessed as inhibition of cell proliferation incubated for 24 hrs by MTT assay. Type of experiment: functional, cell-based. The settings on record: A549, 24 h.
Experiment [11] deals with Histone acetyltransferase p300 (Homo sapiens, UniProt Q09472). The experiment in a line: Inhibition of N-terminal His/GST-tagged recombinant human p300 HAT domain (965 to 1810 residues) expressed in Sf9 insect cells using isotope labelled 3H-Ac-CoA as substrate incubated for 60 mins by microbeta counter based analysis.
The next experiment deals with Vibrio cholerae. The experiment in a line: Antibacterial activity against Vibrio cholerae by serial dilution method. Type of experiment: functional.
A further experiment has as its system Brucella abortus. The experiment in a line: Antibacterial activity against Brucella abortus by serial dilution method. Type of experiment: functional.
Another experiment concerns HEK-293T. The experiment in a line: Antiinflammatory activity against HEK-293T cells assessed as inhibition of TNF-alpha induced NF-kappaB activation at 5 uM preincubated for 2 hrs followed by TNFalpha stimulation for 6 hrs by dual-luciferase reporter assay relative to control. Type of experiment: functional. The conditions noted are these: Homo sapiens, time 8 hrs.
Experiment [12] concerns A549. The experiment in a line: Antiproliferative activity against human A549 cells assessed as inhibition of cell growth incubated for 72 hrs by MTT assay. Type of experiment: functional, cell-based. The settings on record: A549, 72 h.
In a further experiment the test system is Bel-7402. The experiment in a line: Antiproliferative activity against human Bel-7402 cells assessed as inhibition of cell growth incubated for 72 hrs by MTT assay. Type of experiment: functional, cell-based. The conditions noted are these: Bel-7402, 72 h.
The next experiment has as its system HCT-8. The experiment in a line: Antiproliferative activity against human HCT-8 cells assessed as inhibition of cell growth incubated for 72 hrs by MTT assay. The conditions noted are these: HCT-8, 72 h. Type of experiment: functional, cell-based.
Experiment [13] relates to HeLa. The experiment in a line: Antiproliferative activity against human HeLa cells assessed as inhibition of cell growth incubated for 72 hrs by MTT assay. Type of experiment: functional, cell-based.
The target of another experiment is Acetylcholinesterase (Homo sapiens, UniProt P22303). The experiment in a line: Inhibition of acetylcholinesterase (unknown origin) using acetylthiocholine iodide as substrate incubated for 10 mins by Ellman's colorimetric method.
In experiment [14] the test system is MCF7. The experiment in a line: Antiproliferative activity against human MCF7 cells incubated for 24 hrs by MTT assay. Type of experiment: functional, cell-based. The settings on record: MCF7, 24 h.

Chitinase B, sequence (P11797 whole entry): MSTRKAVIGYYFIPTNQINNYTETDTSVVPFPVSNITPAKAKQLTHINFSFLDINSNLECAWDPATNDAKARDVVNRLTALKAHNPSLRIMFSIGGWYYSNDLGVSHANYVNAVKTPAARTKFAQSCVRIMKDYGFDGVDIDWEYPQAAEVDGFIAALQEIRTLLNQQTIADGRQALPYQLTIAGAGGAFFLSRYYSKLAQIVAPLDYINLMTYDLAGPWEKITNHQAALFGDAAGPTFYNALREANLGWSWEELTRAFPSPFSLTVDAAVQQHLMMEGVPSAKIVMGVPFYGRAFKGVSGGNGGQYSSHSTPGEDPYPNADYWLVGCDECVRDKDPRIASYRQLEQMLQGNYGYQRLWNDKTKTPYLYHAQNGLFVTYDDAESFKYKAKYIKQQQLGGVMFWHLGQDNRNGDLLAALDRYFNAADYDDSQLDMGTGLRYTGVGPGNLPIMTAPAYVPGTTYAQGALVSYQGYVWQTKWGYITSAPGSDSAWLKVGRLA
Histone acetyltransferase p300, sequence (Q09472 whole entry, the tested form may be a part): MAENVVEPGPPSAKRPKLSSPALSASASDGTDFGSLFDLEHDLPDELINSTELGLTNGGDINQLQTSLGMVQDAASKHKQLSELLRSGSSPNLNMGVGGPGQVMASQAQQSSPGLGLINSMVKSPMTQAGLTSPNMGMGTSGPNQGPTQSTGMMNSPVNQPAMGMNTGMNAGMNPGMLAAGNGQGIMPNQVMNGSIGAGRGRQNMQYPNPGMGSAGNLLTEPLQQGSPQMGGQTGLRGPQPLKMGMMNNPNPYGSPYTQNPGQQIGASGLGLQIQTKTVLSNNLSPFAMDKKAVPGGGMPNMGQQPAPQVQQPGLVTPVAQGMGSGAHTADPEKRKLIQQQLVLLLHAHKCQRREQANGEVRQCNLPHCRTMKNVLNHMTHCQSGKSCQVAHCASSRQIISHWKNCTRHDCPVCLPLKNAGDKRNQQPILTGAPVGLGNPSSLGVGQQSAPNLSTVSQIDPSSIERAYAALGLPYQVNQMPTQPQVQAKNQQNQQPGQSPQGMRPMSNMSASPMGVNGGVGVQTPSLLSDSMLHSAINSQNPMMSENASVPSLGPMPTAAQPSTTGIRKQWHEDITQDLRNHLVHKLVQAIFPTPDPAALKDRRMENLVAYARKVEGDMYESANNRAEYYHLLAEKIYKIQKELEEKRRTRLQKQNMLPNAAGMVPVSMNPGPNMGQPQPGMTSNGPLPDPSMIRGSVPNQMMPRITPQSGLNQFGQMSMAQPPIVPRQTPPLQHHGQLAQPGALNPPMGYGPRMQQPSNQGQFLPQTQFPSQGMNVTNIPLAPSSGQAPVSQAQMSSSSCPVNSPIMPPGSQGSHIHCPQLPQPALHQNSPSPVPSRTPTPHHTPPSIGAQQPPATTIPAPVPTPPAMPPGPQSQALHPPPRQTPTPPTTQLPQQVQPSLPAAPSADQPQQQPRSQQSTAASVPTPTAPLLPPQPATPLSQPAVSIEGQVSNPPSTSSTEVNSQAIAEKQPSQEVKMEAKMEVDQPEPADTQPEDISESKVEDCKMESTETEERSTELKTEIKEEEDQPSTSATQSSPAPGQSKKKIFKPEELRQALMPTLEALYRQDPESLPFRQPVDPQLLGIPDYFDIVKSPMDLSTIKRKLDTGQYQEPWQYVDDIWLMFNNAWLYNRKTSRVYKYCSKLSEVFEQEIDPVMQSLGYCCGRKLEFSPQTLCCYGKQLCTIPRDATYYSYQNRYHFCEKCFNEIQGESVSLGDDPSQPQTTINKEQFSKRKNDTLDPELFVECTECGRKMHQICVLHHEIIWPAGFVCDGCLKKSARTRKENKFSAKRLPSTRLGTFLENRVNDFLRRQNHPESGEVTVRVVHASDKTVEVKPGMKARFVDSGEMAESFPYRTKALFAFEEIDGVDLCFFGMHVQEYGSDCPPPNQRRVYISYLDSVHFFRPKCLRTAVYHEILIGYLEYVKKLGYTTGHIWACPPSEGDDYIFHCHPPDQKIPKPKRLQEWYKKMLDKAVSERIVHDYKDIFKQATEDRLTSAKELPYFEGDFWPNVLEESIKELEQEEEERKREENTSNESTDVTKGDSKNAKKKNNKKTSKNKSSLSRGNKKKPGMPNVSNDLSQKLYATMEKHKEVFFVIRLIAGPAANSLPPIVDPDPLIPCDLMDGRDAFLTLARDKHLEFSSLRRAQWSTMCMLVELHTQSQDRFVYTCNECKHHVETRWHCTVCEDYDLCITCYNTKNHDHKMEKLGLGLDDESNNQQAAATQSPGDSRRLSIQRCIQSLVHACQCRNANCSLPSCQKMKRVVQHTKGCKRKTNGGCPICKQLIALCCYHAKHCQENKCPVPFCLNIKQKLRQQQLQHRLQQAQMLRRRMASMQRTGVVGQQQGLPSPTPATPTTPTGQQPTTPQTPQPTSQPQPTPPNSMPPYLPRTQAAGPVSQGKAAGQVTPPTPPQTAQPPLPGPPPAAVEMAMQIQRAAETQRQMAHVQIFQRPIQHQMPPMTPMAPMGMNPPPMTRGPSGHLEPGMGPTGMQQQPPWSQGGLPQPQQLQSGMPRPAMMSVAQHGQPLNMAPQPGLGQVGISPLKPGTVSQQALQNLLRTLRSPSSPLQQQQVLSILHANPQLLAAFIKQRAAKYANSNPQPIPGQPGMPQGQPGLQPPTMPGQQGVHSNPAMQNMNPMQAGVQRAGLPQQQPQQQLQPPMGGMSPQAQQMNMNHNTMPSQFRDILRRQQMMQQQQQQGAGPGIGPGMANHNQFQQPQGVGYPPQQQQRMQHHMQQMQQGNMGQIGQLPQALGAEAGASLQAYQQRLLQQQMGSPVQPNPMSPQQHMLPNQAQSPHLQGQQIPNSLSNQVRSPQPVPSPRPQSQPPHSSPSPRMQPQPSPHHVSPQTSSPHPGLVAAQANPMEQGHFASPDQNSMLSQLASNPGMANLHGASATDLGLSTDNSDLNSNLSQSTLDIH
Acetylcholinesterase, sequence (P22303 whole entry): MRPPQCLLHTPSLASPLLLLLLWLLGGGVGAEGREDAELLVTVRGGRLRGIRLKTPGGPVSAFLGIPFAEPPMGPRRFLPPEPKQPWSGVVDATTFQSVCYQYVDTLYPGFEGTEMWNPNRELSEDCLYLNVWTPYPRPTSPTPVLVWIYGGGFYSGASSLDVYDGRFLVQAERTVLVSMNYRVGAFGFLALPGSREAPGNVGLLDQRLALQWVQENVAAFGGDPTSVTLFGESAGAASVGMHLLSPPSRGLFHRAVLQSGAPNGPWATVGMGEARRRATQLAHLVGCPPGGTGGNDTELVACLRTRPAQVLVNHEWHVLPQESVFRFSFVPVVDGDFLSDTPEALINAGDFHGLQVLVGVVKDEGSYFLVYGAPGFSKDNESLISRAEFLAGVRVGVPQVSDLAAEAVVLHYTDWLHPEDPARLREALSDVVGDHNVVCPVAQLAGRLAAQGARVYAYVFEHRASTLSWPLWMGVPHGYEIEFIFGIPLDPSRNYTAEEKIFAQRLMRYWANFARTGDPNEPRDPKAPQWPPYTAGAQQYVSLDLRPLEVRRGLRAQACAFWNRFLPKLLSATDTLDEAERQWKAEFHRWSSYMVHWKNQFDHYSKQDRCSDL

The term Ki denotes the equilibrium dissociation constant of an inhibitor or competing ligand from its target. As to `COc1ccc2cc3[n+](cc2c1OC(=O)c1ccccc1)CCc1cc2c(cc1-3)OCO2`, the Ki on Chitinase B came out at 0.15 µM.
For orientation: MIC means the lowest concentration that inhibits growth of the organism. `COc1cc(/C=C(\C#N)n2cc([N+](=O)[O-])nc2C)c2c(c1OCc1ccccc1F)CN1CCc3cc4c(cc3C1C2)OCO4` (stereo not drawn): the MIC in the experiment with Escherichia coli [1] is 3 µM (≈ 1.83 µg/mL).
What is called IC50 is the midpoint of a concentration-inhibition curve. For `COc1ccc2cc3[n+](cc2c1OCCCCCn1c(C)cc2ccccc21)CCc1cc2c(cc1-3)OCO2.[Cl-]`, the concentration for half-maximal inhibition (IC50) in experiment [2] was 19.9 µM; in [3] it was 9.09 µM; in the experiment with HeLa [4], 7.21 µg/mL; in the experiment on Ca-Ski, 6.32 µg/mL.
As to `COc1ccc2cc3[n+](cc2c1OCc1ccc(C(F)(F)F)cc1)CCc1cc2c(cc1-3)OCO2`, the MIC with Clostridium perfringens, in the experiment on Pseudomonas aeruginosa, with Shigella dysenteriae, in the experiment with Streptococcus pyogenes, in the experiment with Salmonella enteritidis and in the experiment on Staphylococcus aureus [5] was 0.82 µM throughout. The MIC in the experiment with Staphylococcus aureus [6] and in the experiment with Escherichia coli [7] was 0.82 µM in each case.
For the compound `CCCCCC/C=C\C/C=C/C(=O)NCCCCCCOc1c(OC)ccc2cc3[n+](cc12)CCc1cc2c(cc1-3)OCO2`, the IC50 in the experiment on HepG2 turned out to be 4.42 µM; in the experiment on HeLa [8], 3.82 µM; in the experiment on PC-12 it was 3.77 µM; in the experiment on MCF7 [9], 3.91 µM; with A549 [10], 3.25 µM.
`COc1cc2cc3[n+](cc2cc1OC)CCCc1cc2c(cc1-3)OCO2`: in experiment [11], the IC50 is 1.8 µM.
On to `COc1cc(C=C(C#N)C#N)c2cc3[n+](cc2c1O)CCc1cc2c(cc1-3)OCO2.[Cl-]`, for which the minimum inhibitory concentration (MIC) against Vibrio cholerae and against Brucella abortus was 64 µg/mL each time.
Broadly, the inhibition is the relative decrease from the control value, in per cent. `COc1ccc2cc3[n+](cc2c1OS(=O)(=O)c1ccc(C(F)(F)F)cc1)CCc1cc2c(cc1-3)OCO2`: the inhibition at 5 µM in the experiment with HEK-293T was greater than 90%.
Regarding `COCCCCC(=O)Oc1c(OC)ccc2cc3[n+](cc12)CCc1cc2c(cc1-3)OCO2`, the Ki at Chitinase B was 0.15 µM.
`CCCCCN(CCCCC)c1cc(OC)c(OC)c2c1CC1c3cc4c(cc3CCN1C2)OCO4` (stereo not drawn): the IC50 with A549 [12], in the experiment on Bel-7402, in the experiment with HCT-8 and in the experiment with HeLa [13] was 9.74 µM each time.
For the compound `COc1ccc2cc3[n+](cc2c1OC(=O)C1(C)CCCCC1)CCc1cc2c(cc1-3)OCO2`, in the experiment with HEK-293T, the inhibition at 5 µM was greater than 90%.
On to `Oc1cc2c(cc1O)-c1cc3ccc(O)c(O)c3c[n+]1CC2`, for which, on Acetylcholinesterase, the IC50 was 2.3 µM.
In the case of `COc1cc(CC2C(=O)C(C)C(=O)C(C)C2=O)c2cc3[n+](cc2c1O)CCc1cc2c(cc1-3)OCO2.[Cl-]` (stereo not drawn), the MIC in the experiment with Vibrio cholerae and against Brucella abortus was 64 µg/mL each time.
In turn, `CCCCCCCCCOc1c(OC)ccc2cc3[n+](cc12)CCc1cc2c(cc1-3)OCO2` had an IC50 in the experiment with MCF7 [14] of 4.87 µM.
